Experimental data from patent US11945765B1, “4,4′-naphthalene-1,5-diylbis(diazene-2,1-diyl)bis(2-methylphenol) as an antioxidant compound” (KING FAISAL UNIVERSITY, priority 2023, dated 2024).

Experiment: DPPH radical scavenging antioxidant test
Settings: 517 nm; for Inhibition (radical scavenging inhibition): DPPH (0.75 mM), compound 3 μM in ethanol, 30 minutes in the dark
Method: The antioxidant properties of the 4,4′-naphthalene-1,5-diylbis(diazene-2,1-diyl)bis(2-methylphenol) compound were studied by adding 0.2 mL DPPH (0.75 mM)) to 4,4′-naphthalene-1,5-diylbis(diazene-2,1-diyl)bis(2-methylphenol) (III) (3 μM) in ethanol. After 30 minutes of incubation in the dark, the absorbance was read against a blank at 517 nm. Ascorbic acid (vitamin C) was used as standard antioxidants (positive control). A blank sample was prepared by 0.2 ml of DPPH in 3 mL ethanol. A negative control sample was run using ethanol instead of the sample. The radical scavenging inhibition was calculated using the following equation: […]

SMILES: O=C1O[C@H]([C@@H](O)CO)C(O)=C1O [vit c, Ascorbic acid, reference compound]
- Inhibition (radical scavenging inhibition): 74%

SMILES: Cc1cc(/N=N\c2cccc3c(/N=N/c4ccc(O)c(C)c4)cccc23)ccc1O [Product III, 4,4′-naphthalene-1,5-diylbis(diazene-2,1-diyl)bis(2-methylphenol)]
- Inhibition (radical scavenging inhibition): 52%
- antioxidant potential compared to vitamin C (in words) (DPPH in vitro test, vitamin C as positive control): high potential as an antioxidant
